Measured values taken from patent publication US5798375A, “Treatment of arteriosclerosis and xanthoma” (Sankyo Company, Limited, priority 1995, dated 1998).

Assays:
diabetic animal model = settings: in vivo in a diabetic animal model; cited from earlier work
WHHL rabbits [1] = test: Example 2: percentage area covered by lesions, aortic arch and whole aorta; format: in vivo, Male WHHL rabbits; parameters: Lesion Area, Aortic Arch, percentage against the control group / Lesion Area, Total Aorta, percentage against the control group: concentration or dose not given beside the values; settings: oral, eight months
Experimental: (§1) Each test compound was administered for eight months to the rabbits in the form of an aqueous suspension (0.5% carboxymethylcellulose added). In the control group, a 0.5% carboxymethylcellulose solution only was administered.
The values actually measured are represented by the mean value plus or minus standard error. The numbers in parentheses represent the percentage lesion area against the control group.
*p<0.05, **p<0.01; significant difference against the control group under the [Mann-Whitney's U-Test A significant difference (p<0.05) was observed between Groups B and F, between Groups C and E and between Groups D and F at the aortic arch, and between Groups C and E over the total aorta.

WHHL rabbits [2] = test: Example 2: aortic cholesterol content; format: in vivo, Male WHHL rabbits
Experimental: as §1
The aortic cholesterol content was measured The tunica media and tunica intima at the aortic arch and at the thoracic and abdominal aorta were peeled away with tweezers and cut into pieces. The pieces were extracted with a 2:1 by volume mixture of chloroform and methanol.
The chloroform phase was separated and evaporated to dryness and the residue was dissolved in isopropanol. The total cholesterol and the free cholesterol were measured by a conventional enzymatic method.
Data are expressed by the mean plus or minus standard error (mg/g tissue). The values in parentheses indicate the percentage against the control. A significant difference against the control group was observed by the unpaired student t-test: […]

WHHL rabbits [3] = test: Example 2: incidence and degree of xanthoma of the four legs; format: in vivo, Male WHHL rabbits; parameters: Frequency of massive xanthoma: unit not given here
Experimental: as §1
The incidence and the degree of xanthoma of the four legs were measured.

[4] = Example 2: serum cholesterol in WHHL rabbits; format: in vivo, Male WHHL rabbits; settings: Groups C and D (pioglitazone 20 mg/kg; Compound A 10 mg/kg)
Experimental: as §1

WHHL rabbits [5] = test: Example 2: average thickening of intima in aorta; format: in vivo, Male WHHL rabbits; parameters: Average thickening of intima, Aortic Arch, percentage against the control group / Average thickening of intima, Total Aorta, percentage against the control group: concentration or dose not given beside the values
Experimental: as §1
The values actually measured are represented as the mean value plus or minus a standard error (μm). The numbers in parentheses represent the percentage intimal thickening against the control group. A significant difference was observed between Groups D and F at the aortic arch, and between Groups C and E and between Groups D and F over the total aorta (p<0.05) under the Mann-Whitney's U-Test.
The average thickening of the intima is calculated by the cross-sectional area of the aortic tunica intima one section from the arch and two sections from the thoracic and abdominal portions, divided by the length of the tunica media.

[6] = tested on: Male New Zealand white rabbits; test: Example 3: regression of established atherosclerotic lesions in the cholesterol-fed rabbit model; format: in vivo
Experimental: The rabbits were grouped randomly (3-9 animals per group) and the test samples were administered orally for two months, while they were fed with a normolipidaemic diet. […] The results are shown in terms of the percentage of lesion area in the thoracic aorta.

[7] = oral, eight months, control 100 (14/14), *p < 0.05, **p < 0.01 vs control

## CN(CCOc1ccc(CC2SC(=O)NC2=O)cc1)c1ccccn1 (stereo not shown) [BRL-49653, 5-{4-[2-methyl-2-(pyridin-2-ylamino)ethoxy]benzyl}-2,4-thiazolidinedione]
Diabetic animal model
  potency higher than that of troglitazone: about 100 times

## CC(=NOCCOc1ccc(CC2SC(=O)NC2=O)cc1)c1ccc(-c2ccccn2)cc1 (stereo not shown) [Compound A, 5-(4-{2-[1-(4-2'-pyridyl-phenyl)ethylideneaminooxy]ethoxy}benzyl)thiazolidine-2,4-dione]
WHHL rabbits [1]; number in parentheses
  Lesion Area, Aortic Arch, percentage against the control group: 77%
  Lesion Area, Total Aorta, percentage against the control group: 76%
WHHL rabbits [1]; pravastatin 50, pioglitazone 20, Compound A 10 mg/kg, mean ± standard error, *p<0.05, **p<0.01 vs control
  Lesion Area, Total Aorta: 38 ± 8%
WHHL rabbits [1]; pravastatin 50, pioglitazone 20, Compound A 10 mg/kg, mean ± standard error, control 82 ± 5, *p<0.05, **p<0.01 vs control
  Lesion Area, Aortic Arch: 63 ± 9%
WHHL rabbits [2]; mean ± standard error, control 5.3 ± 1.7
  Cholesterol level of Thoracic and Abdominal Aorta, Esterified: 4.9 ± 0.9 mg/g tissue
WHHL rabbits [2]; mean ± standard error, control 6.5 ± 1.4, *p < 0.05
  Cholesterol Content of Aortic Arch, Esterified: 4.5 ± 1.3 mg/g tissue
WHHL rabbits [2]; mean ± standard error, control 14.8 ± 2.3, *p < 0.05 vs control
  Cholesterol level of Thoracic and Abdominal Aorta, Free: 9.2 ± 1.0 mg/g tissue
WHHL rabbits [2]; mean ± standard error, control 20.1 ± 2.3, *p < 0.05, **p < 0.02 vs control
  Cholesterol level of Thoracic and Abdominal Aorta, Total: 14.0 ± 1.7 mg/g tissue
WHHL rabbits [2]; mean ± standard error, control 20.6 ± 2.9
  Cholesterol Content of Aortic Arch, Free: 16.9 ± 1.8 mg/g tissue
WHHL rabbits [2]; mean ± standard error, control 27.1 ± 3.3
  Cholesterol Content of Aortic Arch, Total: 21.4 ± 0.7 mg/g tissue
WHHL rabbits [2]; number in parentheses
  Cholesterol Content of Aortic Arch, Esterified, percentage against the control: 69%
  Cholesterol Content of Aortic Arch, Free, percentage against the control: 82%
  Cholesterol Content of Aortic Arch, Total, percentage against the control: 79%
  Cholesterol level of Thoracic and Abdominal Aorta, Esterified, percentage against the control: 92%
  Cholesterol level of Thoracic and Abdominal Aorta, Free, percentage against the control: 62%
  Cholesterol level of Thoracic and Abdominal Aorta, Total, percentage against the control: 70%
WHHL rabbits [3]; control 57, *p < 0.05, **p < 0.01 vs control
  Frequency of massive xanthoma: 21
WHHL rabbits [3]; forelegs and hindlegs
  incidence of xanthoma: slightly less frequent incidence of xanthoma
WHHL rabbits [3]; number of legs, control 0
  Distribution of severity of lesion: (-) no lesions: 3
WHHL rabbits [3]; number of legs, control 6
  Distribution of severity of lesion: (+++) severe lesion: 0
WHHL rabbits [3]; number of legs, control 10
  Distribution of severity of lesion: (++) moderate lesion: 6
WHHL rabbits [3]; number of legs, control 12
  Distribution of severity of lesion: (+) slight lesion: 19
WHHL rabbits [3]; [7]
  Incidence of xanthoma, Forelegs: 93%
  Incidence of xanthoma, Hindlegs: 86%
WHHL rabbits [3]; oral, eight months, control 100 (28/28), *p < 0.05, **p < 0.01 vs control
  Incidence of xanthoma, Total: 89%
[4]
  reduction of the serum cholesterol levels: no reduction
WHHL rabbits [5]; combinations compared with Groups C and D
  suppression of intimal thickening: no suppression of hypertrophy
WHHL rabbits [5]; number in parentheses
  Average thickening of intima, Aortic Arch, percentage against the control group: 123%
  Average thickening of intima, Total Aorta, percentage against the control group: 105%
WHHL rabbits [5]; oral, eight months, pravastatin 50, pioglitazone 20, Compound A 10 mg/kg, mean ± standard error, control 154 ± 33
  Average thickening of intima in aorta, Total Aorta: 162 ± 22 μm
WHHL rabbits [5]; oral, eight months, pravastatin 50, pioglitazone 20, Compound A 10 mg/kg, mean ± standard error, control 237 ± 63
  Average thickening of intima in aorta, Aortic Arch: 291 ± 51 μm
[6]; 2.5 mg/kg, figure in parentheses
  Rate of lesion area, against the control group: 93
[6]; thoracic aorta, 2.5 mg/kg oral, two months, mean ± standard error, control 29 ± 20
  Rate of lesion area: 27 ± 7%
